Source: patent US12173320B2, “Production of red blood cells and platelets from stem cells” (BOSTON MEDICAL CENTER CORPORATION, priority 2012, dated 2024)

Experiments:
[1] = tested on: AhR (CYP1B1 target gene expression) in iPSCs; test: Quantitative RT-PCR of AhR target gene CYP1B1 in iPSCs; type: cell-based, human
Method: RNA was extracted using the RNeasy kit (Qiagen) according to the manufacturer's instructions and DNase treated using the DNA-free kit (Ambion AM1906). Reverse transcription into cDNA was performed using the High Capacity cDNA Reverse Transcription Kit (Applied Biosystems 4368814). Quantitative (real time) PCR amplification of cDNA was performed using Taqman probes for AHR (Hs00169233 ml), CYP1B1 (Hs002382916 sl), HBA (Hs00361191 gl), HBB (Hs00758889 sl), HBG (Hs01629437 sl), vWF (Hs00169795 ml), PF4 (Hs00427220 gl), NF-E2 (Hs00232351 ml) and CD62P (Hs00927900 ml) and run on the Applied Biosystems StepOne machine. […]
To characterize AhR expression and functionality in both undifferentiated iPSCs and directly differentiated MEPs, AhR protein levels were determined via Western blot in these populations. AhR receptor was robustly expressed in day 30 and day 60 MEPs (FIG. 4A). However, AhR protein was not detected by western blotting in iPSC populations, and we postulated that AhR was expressed at extremely low levels in iPSCs, i.e., below the level of detectability with the antibodies used for Western blots. To test this hypothesis, the ability of FICZ to induce a prototypic AhR-target gene, CYPIB1, in iPSCs or, as a positive control, MEPs was assessed by quantitative RT-PCR.

iPSC-derived MEPs = test: Immunophenotyping of MEP lineage specification (CD235, CD71, CD41 FACS); type: cell-based, human; conditions: MEPs in feeder-free conditions, continuous FICZ, day 15 to 30 and later
Method: Roughly 10^5 cells were collected, spun, and re-suspended in 0.5% BSA in PBS. Samples were incubated for 30 min at ambient temperature with human antibodies including CD41a-FITC (BD 555466), CD235-PE (BD 555570), CD71-FITC (BD 555536), washed and spun at 3300 rpm for 7 min, and re-suspended in 0.5% BSA in PBS with 1 ug/ml Propidium Iodide. Samples were run on a BD FACScalibur using Cellquest Pro software and analyzed via FloJo 8.7. For ploidy analysis, cells were treated with 1.5% NP-40 (Boston Bioproducts P-872) and 62.5 ug/ml Propidium Iodide in PBS immediately before FACScalibur interrogation. For murine bone marrow, samples were first incubated for 5 min at ambient temperature with murine conjugated antibody CD16/32 (BD 553142) before a 30 min incubation with c-Kit-PE (BD 553355), CD41a-FITC (BD 553848), Ter119-PE (BD 553673). For cell viability assays, 2-3×10 ^5 cells were collected, re-suspended in 8.8 ug/ml Hoecsht 33342 in PBS supplemented with 5% FBS. Samples were then incubated in the dark at 37° C. for 15 min, washed, and re-suspended in 1 ug/ml Propidium Iodide in 5% FBS. Samples were run on an LSR-II machine with FACSDiva software and analyzed via FloJo 8.7.
In our previous studies in which we noted exponential expansion of iPSC-derived MEPs (FIG. 3), the AhR-mediated effect that we noted allowed us to culture cells for extended periods of time (>120 days). […]

AhR = test: Lentiviral AhR reporter (MMTV-DRE dsRed / luciferase) in MEPs; type: cell-based, human; conditions: day 30 MEPs, FICZ increased to 0.4 μM
[2] = In vivo blood cell counts (Hemavet) in normal mice; set-up: species or system mouse
Method: C57B16 mice were injected daily intraperitoneally with FICZ suspended in vegetable oil using a weekly dose escalation scheme (Week 1: 1 mg/kg; Week 2: 2 mg/kg; Week 3: 4 mg/kg). Blood cell counts were assayed by Hemavet quantification of peripheral blood bleeds, at all 3 time points (Day 7, 14, and 21). Following the 3 week time point, mice were sacrificed and livers and spleens harvested for quantitative RT-PCR analyses.
To determine if FICZ treatment or whole animals would affect RBC or platelet production, C57B16 mice were injected daily intraperitoneally with FICZ suspended in vegetable oil using a weekly dose escalation scheme (Week 1: 1 mg/kg; Week 2: 2 mg/kg; Week 3: 4 mg/kg). […] Following the 3 week time point, mice were sacrificed and livers and spleens harvested.

[3] = tested on: red cell-depleted bone marrow from C57BL/6 mice; test: MEP production in murine bone marrow culture (FACS); type: cell-based, mouse; conditions: 0.2 μM FICZ, 3 days, versus vehicle
Method: Representative FACS analysis dot plots of red cell depleted C57B6 bone marrow grown for 3 days in +/−0.2 μM FICZ. 1×10^5 cells were initially treated with CD16/32 Fc receptor block, followed by directly conjugated monoclonal antibodies for the designated markers.
Roughly 10^5 cells were collected, spun, and re-suspended in 0.5% BSA in PBS. Samples were incubated for 30 min at ambient temperature with human antibodies including CD41a-FITC (BD 555466), CD235-PE (BD 555570), CD71-FITC (BD 555536), washed and spun at 3300 rpm for 7 min, and re-suspended in 0.5% BSA in PBS with 1 ug/ml Propidium Iodide. Samples were run on a BD FACScalibur using Cellquest Pro software and analyzed via FloJo 8.7. For ploidy analysis, cells were treated with 1.5% NP-40 (Boston Bioproducts P-872) and 62.5 ug/ml Propidium Iodide in PBS immediately before FACScalibur interrogation. For murine bone marrow, samples were first incubated for 5 min at ambient temperature with murine conjugated antibody CD16/32 (BD 553142) before a 30 min incubation with c-Kit-PE (BD 553355), CD41a-FITC (BD 553848), Ter119-PE (BD 553673). For cell viability assays, 2-3×10 ^5 cells were collected, re-suspended in 8.8 ug/ml Hoecsht 33342 in PBS supplemented with 5% FBS. […] Samples were run on an LSR-II machine with FACSDiva software and analyzed via FloJo 8.7. […]

[4] = C57B16 mice, daily i.p. dose escalation

CYP1B1 expression [1]: statistically significant increases
DsRed reporter expression (AhR): significant increase
Compound: O=Cc1c2c(cc3c1=Nc1ccccc1-3)=Nc1ccccc1-2 [FICZ, 6-formylindolo[3,2-b]carbazole]
erythroid specification (CD71 / CD235 expression) (iPSC-derived MEPs): progressive erythroid specification and maturation
red blood cell (RBC) counts [2, 4]: None of the mice in the study showed significant variations
white blood cell (WBC) counts [2, 4]: None of the mice in the study showed significant variations
platelet counts ([2]; C57B16 mice, daily i.p., 1, 2, 4 mg/kg weekly escalation, Day 7, 14 and 21, versus mock or vehicle): increased platelet counts
platelet response ([2]; one mouse immediately exposed to higher doses (4 mg/kg), no week 1 escalation): more immediate and prolific platelet response
CD41+ Ter119+ MEPs in culture [3]: distinct populations
